How the values were obtained:
PKCδ = target: T1, PKCδ (Mus musculus, UniProt P28867); test: CARD9 immunoprecipitation and western blot for pS104-CARD9 in BMDCs stimulated with HKCA; type: cell-based; conditions: 10 uM, added 1 h before stimulation; BMDCs from WT mice stimulated with HKCA (MOI 1:10)
T1 construct: endogenous in cells; host or cells: mouse bone-marrow-derived dendritic cells (BMDCs) from WT mice
Description: FIGS. 3A-3H provide graphs and pictures showing that CARD9 R101 functions as a signaling switch activated by S104 phosphorylation. FIG. 3A, BMDCs expressing Cas9 were transduced with guides for the corresponding genes on day 2 and selected with puromycin. On day 9 cells were stimulated with 100 ug/ml WGP O/N and IL-6 levels in supernatant were measured with ELISA. FIG. 3B, BMDCs expressing Cas9 were transduced with guides for the corresponding genes on day 2 and selected with puromycin. On day 9 cells were stimulated with HKCA (MOI 1:10), HKTR (1:10) or LPS (10 ng/ml) for 30 min. p65 nuclear translocation was measured using fluorescence imaging. The bars in the graph are shown in groups of 6 (from left to right, EGFP, EGFP, PAK2, PAK2, PKCd, PKCd) for each different condition (i.e., untreated, HKCA, HKTR, LPS). FIG. 3C, CARD9 FL, CARD9 R101C or CARD9 S104N were overexpressed in HEK 293T cells. […] Samples were analyzed by WB with the indicated antibodies. […] Samples were analyzed by WB with the indicated antibodies. FIG. 3F, Normalized fluorescence polarization representing filament formation between different CARD9 2-152 variants and Bcl10, average of quadruplicates. […] FIG. 3H, Expression of CARD9 in the lysates from panel g determined by western blot (WB) with the indicated antibodies. […]

[1] = test system: phosphorylated S104 (pS104) of CARD9, peptides pS104, pS104/R101C, S104; test: ELISA of hybridoma clones against CARD9 peptides (antibody specificity); type: binding; conditions: pS104 in the context of either R101 or C101
Text: FIGS. 9A-9J provide schematics, pictures, a table, graphs showing that CARD9 activation through S104 phosphorylation is impaired by the R101C variant implicated in fungal disease. FIG. 9A, schematic representation of CRISPR KI into CARD9 allele to obtain endogenous CARD9 R101C mutation. Figure discloses SEQ ID NOS 69-71, respectively, in order of appearance. FIG. 9B, representative sequencing result highlighting the presence of mutated base pair (arrow). Figure discloses SEQ ID NOS 72-74, respectively, in order of appearance. FIG. 9C, WB from BMDCs isolated from WT or CARD9 R101C mutant mice. FIG. 9D, WB from splenic CD11c positive cells isolated from WT or CARD9 R101C mutant mice. FIG. 9E, table summarizing hybridoma screening results for binding affinity of different phospho-S104 specific antibodies. ELISA results are shown as values of absorbance at 490 nm, representing antibody reactivity towards either pS104, or pS104/R101C, or S104 peptides. Antibody used in the study is row 6 (i.e., 4F9.H5). FIG. 9F, IL-6 concentration in supernatants from BMDCs from WT, CARD9−/− or CARD9R101C mutant treated with indicated concentrations of WGP, HKCA, HKTR or LPS (10 ng/ml) for 24h. (n=3 mice per condition). […]

T1 sequence (P28867 whole entry): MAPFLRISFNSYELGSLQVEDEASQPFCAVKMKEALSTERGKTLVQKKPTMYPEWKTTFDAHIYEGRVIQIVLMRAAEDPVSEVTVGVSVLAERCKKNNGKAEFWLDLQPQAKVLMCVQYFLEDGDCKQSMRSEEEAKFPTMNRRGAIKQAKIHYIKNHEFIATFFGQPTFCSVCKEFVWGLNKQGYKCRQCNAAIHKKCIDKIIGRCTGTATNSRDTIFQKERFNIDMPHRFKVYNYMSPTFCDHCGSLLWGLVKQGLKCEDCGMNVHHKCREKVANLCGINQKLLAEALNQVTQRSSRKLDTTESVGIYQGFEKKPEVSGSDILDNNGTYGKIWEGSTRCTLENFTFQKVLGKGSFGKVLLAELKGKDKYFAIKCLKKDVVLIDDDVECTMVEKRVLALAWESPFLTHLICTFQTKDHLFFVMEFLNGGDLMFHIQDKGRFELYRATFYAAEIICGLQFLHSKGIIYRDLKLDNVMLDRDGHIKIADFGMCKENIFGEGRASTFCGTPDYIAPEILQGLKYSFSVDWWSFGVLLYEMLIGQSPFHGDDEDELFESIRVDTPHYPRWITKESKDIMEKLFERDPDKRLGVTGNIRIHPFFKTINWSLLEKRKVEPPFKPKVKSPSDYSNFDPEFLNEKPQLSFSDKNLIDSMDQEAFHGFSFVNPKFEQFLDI

Row | CARD9 S104 phosphorylation (PKCδ) | Molecule | recognition of S104 phosphorylation (antibody specificity by ELISA against different peptides) [1]
1 | inhibition of CARD9 S104 phosphorylation | CN1CCN(c2nc(C3=C(c4c[nH]c5ccccc45)C(=O)NC3=O)c3ccccc3n2)CC1 [Sotrastaurin] | –
2 | – | phospho-specific CARD9 S104 antibody: mouse monoclonal IgG1 antibody to phosphorylated S104 of CARD9; clone 4F9.H5 used in the study; VH/VL in Table 1 (antibody, V domains shown) VH: EVQLQQSGPELVKPGASMKMSCKASGYSFTGQTMHWVKQTHGKNLEWIGLINPYNGGTKYNQIFTGKATLTVDKSSSSAYMELLSLTSEDSAVYFCAIWDYVLDYWGQGTSVTVSSAKTTPPSVYPLAPGSAAQTNSMVTLGCLVK VL: DVVMTQTPLSLPVSLGDQASISCRSSQSLLHSNGKTYLHWYLQKPGQSPKLLIYKVSNRFSGVPDRFSGSGSGTDFTLKISRVEAEDLGVYFCSQSTHIPPTFGGGTKLEIKRADAAPTVSIFPPSSEQLTSGGASVVCF | recognizes S104 phosphorylation independently of R101

Source: patent US20260158139A1, “CARD9 VARIANT POLYPEPTIDE AND ANTIBODIES DIRECTED THERETO” (The Broad Institute, Inc., priority 2023, published 2026)
